The values that follow come from publication PMC9391280, “A High-Throughput Fluorescent Turn-On Assay for Inhibitors of DHHC Family Proteins” (ACS Chemical Biology, 2022).

The term IC50 denotes the concentration needed to halve the response being measured. As usually defined, the Km is the concentration of substrate that gives half-maximal velocity.

Like-named read-outs stand apart in the source and are kept apart here.

Data set [1] has as its target T1, zDHHC20 (Homo sapiens, UniProt Q5W0Z9).
T1 sequence (Q5W0Z9 1-365): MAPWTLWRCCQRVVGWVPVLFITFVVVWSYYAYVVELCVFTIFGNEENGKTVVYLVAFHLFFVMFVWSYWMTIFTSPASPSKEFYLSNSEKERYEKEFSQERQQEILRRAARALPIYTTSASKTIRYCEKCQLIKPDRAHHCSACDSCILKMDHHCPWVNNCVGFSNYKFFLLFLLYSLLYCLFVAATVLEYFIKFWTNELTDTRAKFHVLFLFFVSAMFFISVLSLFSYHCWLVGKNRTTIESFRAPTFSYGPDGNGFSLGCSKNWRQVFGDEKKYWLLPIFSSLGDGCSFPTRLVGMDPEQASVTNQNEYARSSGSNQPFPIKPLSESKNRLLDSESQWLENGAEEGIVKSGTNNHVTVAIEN
The experiment in a line: PTP fluorogenic turn-on assay with purified zDHHC20. The format is biochemical.

The target in data set [2] is T2, zDHHC3 (Homo sapiens, UniProt Q9NYG2).
T2 sequence (Q9NYG2 1-299): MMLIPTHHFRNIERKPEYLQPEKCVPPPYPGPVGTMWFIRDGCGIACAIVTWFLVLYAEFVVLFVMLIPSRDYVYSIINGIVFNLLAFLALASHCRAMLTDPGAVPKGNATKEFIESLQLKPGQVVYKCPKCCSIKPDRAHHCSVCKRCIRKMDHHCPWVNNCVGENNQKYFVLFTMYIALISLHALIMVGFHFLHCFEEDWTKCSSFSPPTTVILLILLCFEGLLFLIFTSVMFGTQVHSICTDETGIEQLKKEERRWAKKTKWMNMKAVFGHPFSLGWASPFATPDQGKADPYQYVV
The experiment in a line: PTP fluorogenic assay, single concentration […]. The format is biochemical.

For data set [3], the target named is T3, zDHHC2 (Homo sapiens, UniProt Q9UIJ5).
T3 sequence (Q9UIJ5 1-367): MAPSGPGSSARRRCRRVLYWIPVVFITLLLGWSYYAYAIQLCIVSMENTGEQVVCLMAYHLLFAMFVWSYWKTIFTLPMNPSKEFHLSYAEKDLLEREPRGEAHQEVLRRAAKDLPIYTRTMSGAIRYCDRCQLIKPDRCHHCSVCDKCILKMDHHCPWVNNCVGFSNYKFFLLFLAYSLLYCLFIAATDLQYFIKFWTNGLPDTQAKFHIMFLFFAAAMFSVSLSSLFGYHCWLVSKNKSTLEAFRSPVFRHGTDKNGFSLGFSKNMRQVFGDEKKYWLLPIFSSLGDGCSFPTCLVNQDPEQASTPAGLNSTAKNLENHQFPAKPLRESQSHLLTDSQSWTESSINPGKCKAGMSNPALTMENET
The experiment in a line: PTP fluorogenic assay, single concentration […]. It is filed as biochemical.

Data set [4] concerns the target T2, zDHHC3. The experiment in a line: fluorogenic probe uncaging by purified enzyme ([…] probe). The format is biochemical.
Data set [5] deals with T3, zDHHC2. The description is as above. It is filed as biochemical.
Substrate in data set [6]: CCCCCCCCCCCCCCCC(=O)SCCN(C)C(=O)Oc1ccc2c(c1)Oc1cc(N3CCN(C(=O)CCCC(=O)O)CC3)ccc1C21OC(=O)c2ccccc21
In words: purified protein. The note with it: palmitoyl-CoA mimetic; turnover depends on the key catalytic cysteine of the DHHC motif.

Consider `CCCCCCCCCCCCCCC(Br)C(=O)O` (stereo not shown) [2BP, 2-Bromopalmitate], for which the IC50 in data set [1] amounted to 2020 ± 290 nM. In addition, the “PTP fluorogenic assay, single concentration 20 μM” value was “both CMA and 2BP were able to inhibit zDHHC2, zDHHC3, and zDHHC20” in data set [2]; “both CMA and 2BP were able to inhibit zDHHC2, zDHHC3, and zDHHC20” in data set [3].

Consider `C=CC(=O)N(CC#N)CCCCCCCCCCCCCC` [CMA, cyanomyracrylamide], for which the IC50 in data set [1] (read-out: IC50) was determined as 463 ± 70 nM.

On to `CCCCCCCCCCCCCCCC(=O)SCCN(C)C(=O)Oc1ccc2c(c1)Oc1cc(N3CCN(C(=O)CCN4CCOCC4)CC3)ccc1C21OC(=O)c2ccccc21` (stereo not shown) [PTP-3], for which the “fluorogenic probe uncaging by purified enzyme (4 μM probe)” value in data set [4] was “PTP-3, the morpholino compound, was the best substrate for these two DHHCs”; in data set [5], “PTP-3, the morpholino compound, was the best substrate for these two DHHCs”.

B1: zDHHC20 (Homo sapiens) (protein)
chain: T1 sequence (Q5W0Z9 1-365)
Consider B1, for which, in data set [6], the Km stood at 24.3 µM.
